The values below come from ChEMBL document CHEMBL3508693 (2016).

The nature of series [1]: % aliskiren hemifumarate (0-168h) recovered as M3 in urine following single intravenous dose of [14C] aliskiren hemifumarate at 1 mg.Kg-1 level in marmoset. The settings on record: in vivo. The class given is ADME, organism-based, Callithrix jacchus.
A short description of series [2]: % aliskiren hemifumarate (0-168h) recovered as M3 in urine following single oral dose of [14C] aliskiren hemifumarate at 3 mg.Kg-1 level in marmoset. The series is classed as ADME, organism-based, Callithrix jacchus. The settings on record: in vivo.
Series [3] in a line: % aliskiren hemifumarate (0-72h) recovered as M3 in faeces following single intravenous dose of [14C] aliskiren hemifumarate at 1 mg.Kg-1 level in marmoset. The class given is ADME, organism-based, Callithrix jacchus, Feces. The settings on record: in vivo.
A short description of series [4]: % aliskiren hemifumarate (0-72h) recovered as M3 in faeces following single oral dose of [14C] aliskiren hemifumarate at 3 mg.Kg-1 level in marmoset. The class given is ADME, organism-based, Callithrix jacchus, Feces. The settings on record: in vivo.
The nature of series [5]: % aliskiren hemifumarate recovered as M3 in urine following single oral dose of 300 mg [14C]SPP100 studied in healthy men. The series is classed as ADME, organism-based. The settings on record: human, in vivo, at 300 mg.
The nature of series [6]: % aliskiren hemifumarate recovered as M3 in faeces following single oral dose of 300 mg [14C]SPP100 studied in healthy men. The class given is ADME, organism-based, Feces. The settings on record: human, in vivo, at 300 mg.
A short description of series [7]: % aliskiren hemifumarate recovered as M3 in urine and faeces following single oral dose of 300 mg [14C]SPP100 studied in healthy men. The series is classed as ADME, organism-based, Urine/Feces. The settings on record: human, in vivo, at 300 mg.
Series [8] in a line: % aliskiren recovered as M3 in bile following single intravenous administration of 10 mg.Kg-1 [14C] aliskiren hemifumarate in male rat. The class given is ADME, organism-based, HAN:WIST(SPF). The settings on record: in vivo.
Series [9] can be described thus: % aliskiren recovered as M3 in hydrolysed following single intravenous administration of 10 mg.Kg-1 [14C] aliskiren hemifumarate in male rat. The series is classed as ADME, organism-based, HAN:WIST(SPF), Bile. The settings on record: in vivo.
Series [10] in a line: % aliskiren recovered as M3 in urine following single intravenous administration of 10 mg.Kg-1 [14C] aliskiren hemifumarate in male rat. The series is classed as ADME, organism-based, HAN:WIST(SPF). The settings on record: in vivo.
Series [11] can be described thus: % aliskiren recovered as M3 of receiver rat following duodenal infusion of radioactivity through bile from donor rat treated with single intravenous administration of 10 mg.Kg-1 [14C] aliskiren hemifumarate. The series is classed as ADME, organism-based, HAN:WIST(SPF). The settings on record: in vivo.
Series [12] is described as follows: % of radioactivity recovered as M3 in plasma following oral administration of [14C] aliskiren hemifumarate at 100 mg.Kg-1 level in rat. The series is classed as ADME, organism-based, Albino HAN:WIST. The settings on record: in vivo.
Series [13] is described as follows: % of radioactivity recovered as M3 in urine following oral administration of [14C] aliskiren hemifumarate at 100 mg.Kg-1 level in rat. The class given is ADME, organism-based, Albino HAN:WIST. The settings on record: in vivo.
A short description of series [14]: % of radioactivity recovered as M3 in faeces following oral administration of [14C] aliskiren hemifumarate at 100 mg.Kg-1 level in rat. The settings on record: in vivo. The series is classed as ADME, organism-based, Albino HAN:WIST, Feces.
Series [15] in a line: % of radioactivity recovered as M3 in plasma following intravenous administration of [14C] aliskiren hemifumarate at 10 mg.Kg-1 level in rat. The class given is ADME, organism-based, Albino HAN:WIST. The settings on record: in vivo.
Series [16] is described as follows: % of radioactivity recovered as M3 in urine following intravenous administration of [14C] aliskiren hemifumarate at 10 mg.Kg-1 level in rat. The class given is ADME, organism-based, Albino HAN:WIST. The settings on record: in vivo.
Series [17] is described as follows: % of radioactivity recovered as M3 in faeces following intravenous administration of [14C] aliskiren hemifumarate at 10 mg.Kg-1 level in rat. The settings on record: in vivo. The series is classed as ADME, organism-based, Albino HAN:WIST, Feces.
Series [18] in a line: % aliskiren hemifumarate (0-168h) recovered as M4 in urine following single intravenous dose of [14C] aliskiren hemifumarate at 1 mg.Kg-1 level in marmoset. The class given is ADME, organism-based, Callithrix jacchus. The settings on record: in vivo.
The nature of series [19]: % aliskiren hemifumarate (0-168h) recovered as M4 in urine following single oral dose of [14C] aliskiren hemifumarate at 3 mg.Kg-1 level in marmoset. The series is classed as ADME, organism-based, Callithrix jacchus. The settings on record: in vivo.
The nature of series [20]: % aliskiren hemifumarate (0-72h) recovered as M4 in faeces following single intravenous dose of [14C] aliskiren hemifumarate at 1 mg.Kg-1 level in marmoset. The class given is ADME, organism-based, Callithrix jacchus, Feces. The settings on record: in vivo.
Series [21] in a line: % aliskiren hemifumarate (0-72h) recovered as M4 in faeces following single oral dose of [14C] aliskiren hemifumarate at 3 mg.Kg-1 level in marmoset. The series is classed as ADME, organism-based, Callithrix jacchus, Feces. The settings on record: in vivo.
Series [22] in a line: % aliskiren hemifumarate recovered as M4 in urine following single oral dose of 300 mg [14C]SPP100 studied in healthy men. The settings on record: human, in vivo, at 300 mg. The series is classed as ADME, organism-based.
Series [23] can be described thus: % aliskiren hemifumarate recovered as M4 in faeces following single oral dose of 300 mg [14C]SPP100 studied in healthy men. The series is classed as ADME, organism-based, Feces. The settings on record: human, in vivo.
Series [24] is described as follows: % aliskiren hemifumarate recovered as M4 in urine and faeces following single oral dose of 300 mg [14C]SPP100 studied in healthy men. The settings on record: human, in vivo, at 300 mg. The class given is ADME, organism-based, Urine/Feces.
The nature of series [25]: % aliskiren recovered as M4 in bile following single intravenous administration of 10 mg.Kg-1 [14C] aliskiren hemifumarate in male rat. The class given is ADME, organism-based, HAN:WIST(SPF). The settings on record: in vivo.
A short description of series [26]: % aliskiren recovered as M4 in hydrolysed following single intravenous administration of 10 mg.Kg-1 [14C] aliskiren hemifumarate in male rat. The class given is ADME, organism-based, HAN:WIST(SPF), Bile. The settings on record: in vivo.
A short description of series [27]: % aliskiren recovered as M4 in urine following single intravenous administration of 10 mg.Kg-1 [14C] aliskiren hemifumarate in male rat. The class given is ADME, organism-based, HAN:WIST(SPF). The settings on record: in vivo.
The nature of series [28]: % aliskiren recovered as M4 of receiver rat following duodenal infusion of radioactivity through bile from donor rat treated with single intravenous administration of 10 mg.Kg-1 [14C] aliskiren hemifumarate. The class given is ADME, organism-based, HAN:WIST(SPF). The settings on record: in vivo.
The nature of series [29]: % of radioactivity recovered as M4 in plasma following oral administration of [14C] aliskiren hemifumarate at 100 mg.Kg-1 level in rat. The series is classed as ADME, organism-based, Albino HAN:WIST. The settings on record: in vivo.
Series [30] in a line: % of radioactivity recovered as M4 in urine following oral administration of [14C] aliskiren hemifumarate at 100 mg.Kg-1 level in rat. The class given is ADME, organism-based, Albino HAN:WIST. The settings on record: in vivo.
A short description of series [31]: % of radioactivity recovered as M4 in faeces following oral administration of [14C] aliskiren hemifumarate at 100 mg.Kg-1 level in rat. The class given is ADME, organism-based, Albino HAN:WIST, Feces. The settings on record: in vivo.
Series [32] is described as follows: % of radioactivity recovered as M4 in plasma following intravenous administration of [14C] aliskiren hemifumarate at 10 mg.Kg-1 level in rat. The class given is ADME, organism-based, Albino HAN:WIST. The settings on record: in vivo.
The nature of series [33]: % of radioactivity recovered as M4 in urine following intravenous administration of [14C] aliskiren hemifumarate at 10 mg.Kg-1 level in rat. The series is classed as ADME, organism-based, Albino HAN:WIST. The settings on record: in vivo.
Series [34] is described as follows: % of radioactivity recovered as M4 in faeces following intravenous administration of [14C] aliskiren hemifumarate at 10 mg.Kg-1 level in rat. The series is classed as ADME, organism-based, Albino HAN:WIST, Feces. The settings on record: in vivo.

Molecules are shown by their SMILES.

Consider `COc1ccc(C[C@@H](C[C@H](N)[C@@H](O)C[C@H](C(=O)NCC(C)(C)C(N)=O)C(C)C)C(C)C)cc1OCCCO`, for which the Compound recovery in series [1] is 0.4%; in series [2], 0.1%; in [3], 17%; in series [4] it was 2%; in [5] it was < 0.1%; in series [6] it was 0.6%. In addition, the Compound recovery is < 0.6% in series [7]; 15.9% in [8]; 15.5% in [9]; 4.7% in series [10]; 15.2% in series [11]; “<= 2%” in [12]. Besides, the Compound recovery entry in series [13] is “<= 2%”; in [14], “<= 2%”; in series [15] it was “OUTCOME = Not detected or not investigated”; in series [16], “<= 2%”; in series [17], > 2%.
Turning to `COc1ccc(C[C@@H](C[C@H](N)[C@@H](O)C[C@H](C(=O)NCC(C)(C)C(N)=O)C(C)C)C(C)C)cc1O`, the Compound recovery is 0.1% in series [18]; 0% in series [19]; 2% in [20]; 1% in [21]; < 0.1% in series [22]; “OUTCOME = Not detected” in [23]. Besides, the Compound recovery in series [24] is recorded as < 0.1%; in series [25], 1.4%; in series [26] it was 4.5%; in series [27], 0.9%; in series [28] it was “OUTCOME = Not detected”; in [29], “<= 2%”. Besides, the Compound recovery result is recorded as “<= 2%” in series [30]; “<= 2%” in [31]; “OUTCOME = Not detected or not investigated” in series [32]; “OUTCOME = Not detected or not investigated” in series [33]; “OUTCOME = Not detected or not investigated” in [34].
